Columns and labels:
A549 cells = assay: Cytotoxicity against A549 cells, Alamar Blue; assay type: cell-based; conditions: Supplementary Table 1, compound 0.5 mM, percentage of controls (n=1); for viability at 500 µM: Homo sapiens, A549, 65 h
Summary of the method: (§1)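 HeLa and A549 cells grown in DMEM with 10% FCS and 2 mM L-Glutamine were seeded at 2 × 10^4 cells/well. They were exposed to compounds for ~65 hours, then Alamar Blue was added for a further 5 hours to measure viability.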

HeLa cells = assay: cells; conditions: for viability at 500 µM: Homo sapiens, HeLa, 65 h, read-out: HeLa Cells Alamar Blue
Summary of the method: as §1

TbINO1 = target: T1, TbINO1 (Trypanosoma brucei brucei, UniProt Q5QQ46); assay: biochemical; assay type: binding; conditions: for ΔTm at 1000 µM: read-out: Tb Ino1 Tm Shift [˚C]
T1 sequence (Q5QQ46 1-528): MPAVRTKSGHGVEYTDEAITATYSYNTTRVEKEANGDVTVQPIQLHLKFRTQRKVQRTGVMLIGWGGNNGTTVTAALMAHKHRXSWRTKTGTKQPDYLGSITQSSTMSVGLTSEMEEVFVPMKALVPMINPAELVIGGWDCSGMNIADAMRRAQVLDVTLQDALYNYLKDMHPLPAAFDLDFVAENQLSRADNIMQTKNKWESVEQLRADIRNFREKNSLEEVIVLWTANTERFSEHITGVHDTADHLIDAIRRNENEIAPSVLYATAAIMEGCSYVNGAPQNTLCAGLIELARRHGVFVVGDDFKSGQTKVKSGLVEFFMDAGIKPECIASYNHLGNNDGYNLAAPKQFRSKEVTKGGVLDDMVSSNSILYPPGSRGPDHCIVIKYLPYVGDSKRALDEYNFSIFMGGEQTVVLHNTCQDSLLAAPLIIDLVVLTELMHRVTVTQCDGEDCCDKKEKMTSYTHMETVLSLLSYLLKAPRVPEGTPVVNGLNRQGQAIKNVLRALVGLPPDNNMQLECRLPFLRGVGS

c1cncc(Cn2cccc2)c1 [compound 248, 3‐(1H‐pyrrol‐1‐ylmethyl)pyridine]
viability at 500 µM (A549 cells): 86.6% | viability at 500 µM (HeLa cells): 91.3 ± 11.9% | ΔTm at 1000 µM (TbINO1): 0 °C

O=C(O)c1ccc(-c2ccsc2)cc1 [compound 648, 4‐(3‐thienyl)benzoic acid]
viability at 500 µM (A549 cells): 149% | viability at 500 µM (HeLa cells): 105 ± 8.2% | ΔTm at 1000 µM (TbINO1): 0.25 ± 0.08 °C

Cc1nc(C#N)cs1 [compound 67, 2‐methyl‐1,3‐thiazole‐4‐carbonitrile]
viability at 500 µM (A549 cells): 89.7% | viability at 500 µM (HeLa cells): 96.1 ± 9.2% | ΔTm at 1000 µM (TbINO1): 0.01 ± 0.07 °C

COc1c(C(=O)O)csc1Cl [compound 575, 5‐chloro‐4‐methoxythiophene‐3‐carboxylic acid]
A549 Cells Alamar Blue (A549 cells): 91.2 percentage of controls | HeLa Cells Alamar Blue (HeLa cells; Supplementary Table 1, compound 0.5 mM, percentage of controls, mean ± SD (n=3) or SE (n=2)): 90.5 ± 15.4 percentage of controls | Tb Ino1 Tm Shift [˚C] (TbINO1; Supplementary Table 1, compound 1mM, mean ± SD from Boltzman curve fitting): 1.07 ± 0.08 °C

OCc1ccc(-c2ccco2)s1 [compound 458, [5‐(2‐furyl)thien‐2‐yl]methanol]
viability at 500 µM (A549 cells): 73.6% | viability at 500 µM (HeLa cells): 94 ± 12.5% | ΔTm at 1000 µM (TbINO1): 0.6 ± 0.02 °C
